Counter-ions that a name gives are not always drawn. Like-named read-outs stand apart in the source and are kept apart here.
Experiments:
[1] = molecular target: T1, 5-HT2 receptor in A7r5 rat vascular smooth muscle cells (Rattus norvegicus, UniProt P14842); test: 5-HT2 Functional Assay: Calcium Mobilization (FLIPR); format: cell-based; conditions: for Emax: read-out: Efficacy (Emax %)
T1 construct: endogenous in cells; host or cells: A7r5 rat vascular smooth muscle cells
Method: 5-HT2 Functional Assay: Calcium Mobilization
The receptor-mediated mobilization of intracellular calcium ([Ca^2+]i) was studied using the Fluorescence Imaging Plate Reader (FLIPR) instrument. Rat vascular smooth muscle cells, A7r5, were grown in a normal media of DMEM/10% FBS and 10 μg/ml gentamycin. Confluent cell monolayers were trypsinized, pelleted, and re-suspended in normal media. Cells were seeded in a 50 μL volume at a density of 20,000 cells per well in a black wall, 96-well tissue culture plate and grown for 2 days. On the day of the experiment, one vial of FLIPR Calcium Assay Kit dye was re-suspended in 50 ml of a FLIPR buffer consisting of Hank's Balanced Salt Solution (HBSS), 20 mM HEPES, and 2.5 mM probenecid, pH 7.4. Cells were loaded with the calcium-sensitive dye by addition of an equal volume (50 μl) to each well of the 96-well plate and incubated with dye for 1 h at 23° C. Typically, test compounds were stored at […] in 50% DMSO/50% Ethanol solvent. Compounds were diluted 1:50 in 20% DMSO/20% Ethanol. For dose-response experiments, compounds were diluted 1:50 in FLIPR buffer and serially diluted 1:10 to give a 5- or 8-point dose-response curve.
At the beginning of an experimental run, a signal test was performed to check the basal fluorescence signal from the dye-loaded cells and the uniformity of the signal across the plate. The basal fluorescence was adjusted between 8000-12000 counts by modifying the exposure time, the camera F-stop, or the laser power. The instrument settings for a typical assay were as follows: laser power 0.3-0.6 W, camera F-stop F/2, and exposure time 0.4 sec. An aliquot (25 μl) of the test compound was added to the existing 100 μl dye-loaded cells at a dispensing speed of 50 μl/sec. Fluorescence data were collected in real-time at 1.0 sec intervals for the first 60 sec and at 6.0 sec intervals for an additional 120 sec. Responses were measured as peak fluorescence intensity minus basal and where appropriate were expressed as a percentage of a maximum 5-HT-induced response.

[2] = tested on: lasered (hypertensive) eyes of conscious cynomolgus monkeys; test: Acute IOP Response in Lasered (Hypertensive) Eyes of Conscious Cynomolgus Monkeys; format: in vivo, cynomolgus monkey; conditions: 300 μg topical; for % IOP change 1 hr: 1 hr after dose; for % IOP change 3 hr: 3 hr after dose; for % IOP change 6 hr: 6 hr after dose
Method: Acute IOP Response in Lasered (Hypertensive) Eyes of Conscious Cynomolgus Monkeys
Intraocular pressure (IOP) can be determined with an Alcon Pneumatonometer after light corneal anesthesia with 0.1% proparacaine. Eyes are washed with saline after each measurement. After a baseline IOP measurement, test compound is instilled in one 30 μL aliquot to the right eyes only of nine cynomolgus monkeys. Vehicle is instilled in the right eyes of six additional animals. Subsequent IOP measurements are taken at 1, 3, and 6 hours.

5-HT2 receptors = 5-HT2 receptors (Rattus norvegicus, UniProt P14842); test: 5-HT2 Receptor Binding Assay ([125I]DOI competition); set-up: species or system rat or human; conditions: inhibition of [125I]DOI binding, cerebral cortex homogenates
Method: 5-HT2 Receptor Binding Assay
The assay mixture is incubated for 1 hour at 23° C. in polypropylene tubes and the assays terminated by rapid vacuum filtration over Whatman GF/B glass fiber filters previously soaked in 0.3% polyethyleneimine using ice-cold buffer. Test compounds (at different concentrations) are substituted for methiothepin. Filter-bound radioactivity is determined by scintillation spectrometry on a beta counter.

[3] = percentage of maximum 5-HT-induced response, A7r5 cells

T1 sequence (P14842 whole entry): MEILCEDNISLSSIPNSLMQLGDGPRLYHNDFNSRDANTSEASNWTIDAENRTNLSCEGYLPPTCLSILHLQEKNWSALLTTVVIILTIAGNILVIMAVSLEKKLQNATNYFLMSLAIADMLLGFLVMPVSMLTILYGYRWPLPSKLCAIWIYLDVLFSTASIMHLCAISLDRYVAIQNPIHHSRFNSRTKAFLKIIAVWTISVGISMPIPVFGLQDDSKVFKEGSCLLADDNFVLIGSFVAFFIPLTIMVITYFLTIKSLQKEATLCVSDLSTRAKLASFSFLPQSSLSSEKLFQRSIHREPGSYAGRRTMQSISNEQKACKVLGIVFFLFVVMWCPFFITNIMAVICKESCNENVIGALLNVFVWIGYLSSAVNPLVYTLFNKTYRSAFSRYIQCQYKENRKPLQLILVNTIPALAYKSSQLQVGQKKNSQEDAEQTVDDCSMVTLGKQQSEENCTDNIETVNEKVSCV
5-HT2 receptors, sequence (P14842 whole entry): as above

Row | Molecule | EC50 [1] [µM] | Emax [1, 3] [%] | also measured
1 | CCOC(=O)Cc1cc(OC)c(C[C@@H](C)N)cc1OC [Example 1, [(R)-4-(2-Amino-propyl)-2,5-dimethoxy-phenyl]-acetic acid ethyl ester hydrochloride] | 1.1 | 24 | –
2 | COc1cc(C)c(OC(C)=O)cc1CC(C)N (stereo not shown) [Example 9, Acetic acid 5-(2-Amino-propyl)-4-methoxy-2-methyl-phenyl ester hydrochloride] | 4.9 | 37 | –
3 | COCSCCc1cc(OC)c(C[C@@H](C)N)cc1OC [Example 7, (R)-2-[2,5-Dimethoxy-4-(2-methoxymethylsulfanyl-ethyl)-phenyl]-1-methyl-ethylamine hydrochloride] | 0.091 | 32 | –
4 | COc1cc(C)c(OS(C)(=O)=O)cc1CC(C)N (stereo not shown) [Example 8, Methanesulfonic acid 5-(2-amino-propyl)-4-methoxy-2-methyl-phenyl ester hydrochloride] | 0.89 | 30 | –
5 | COc1cc(CC(C)N)c(OC)cc1CCSC.Cl (stereo not shown) [Example 4, 2-[2,5-Dimethoxy-4-(2-methylsulfanyl-ethyl)-phenyl]-1-methyl-ethylamine hydrochloride] | 0.094 | 51 | % IOP change 1 hr [2]: −3.5%; % IOP change 3 hr [2]: −14.8%; % IOP change 6 hr [2]: −16.1%
6 | COc1cc(C[C@@H](C)N)c(OC)cc1Cc1ccc(Cl)cc1 [Example 21, (R)-2-[4-(4-Chloro-benzyl)-2,5-dimethoxy-phenyl]-1-methyl-ethylamine hydrochloride] | 0.963 | 39 | –
7 | COCCCc1cc(OC)c(C[C@@H](C)N)cc1OC [Example 6, (R)-2-[2,5-Dimethoxy-4-(3-methoxy-propyl)-phenyl]-1-methyl-ethylamine hydrochloride] | 0.022 | 45 | –
8 | COc1cc(C[S+](C)[O-])c(OC)cc1CC(C)N (stereo not shown) [Example 15, 2-(4-Methanesulfinylmethyl-2,5-dimethoxy-phenyl)-1-methyl-ethylamine trifluoroacetate] | 7.6 | 37 | –
9 | COc1cc(C[C@@H](C)N)c(OC)cc1CC1CCCO1 (stereo partly drawn) [Example 12, (R)-2-[2,5-Dimethoxy-4-(tetrahydro-furan-2-ylmethyl)-phenyl]-1-methyl-ethylamine hydrochloride] | 0.082 | 73 | –
10 | COc1cc(C[C@@H](C)N)c(OC)cc1CC1CCCS1 (stereo partly drawn) [Example 13, (R)-2-[2,5-Dimethoxy-4-(tetrahydro-thiophen-2-ylmethyl)-phenyl]-1-methyl-ethylamine hydrochloride] | 0.56 | 81 | –
11 | COc1cc(CC(C)N)c(OC)cc1CC[S+](C)[O-] (stereo not shown) [Example 16, 2-[4-(2-Methanesulfinyl-ethyl)-2,5-dimethoxy-phenyl]-1-methyl-ethylamine hydrochloride] | 0.87 | 40 | –
12 | (R)-2-(4-Furan-2-ylmethyl-2,5-dimethoxy-phenyl)-1-methyl-ethylamine hydrochloride [Example 11] | – | – | IC50 (5-HT2 receptors): 0.00036 µM; EC50 ([1]; intracellular calcium mobilization, A7r5 cells, FLIPR, read-out: EC50): 0.12 µM; Efficacy (Emax %) [1, 3]: 55%
13 | COc1cc(C[C@@H](C)N)c(OC)cc1Cc1nc(C)no1 [Example 2, (R)-2-[2,5-Dimethoxy-4-(3-methyl-[1,2,4]oxadiazol-5-ylmethyl)-phenyl]-1-methyl-ethylamine hydrochloride] | 1.06 | 23 | –
14 | COc1cc(C[C@@H](C)N)c(OC)cc1CC1=NCCS1 [Example 10, (R)-2-[4-(4,5-Dihydro-thiazol-2-ylmethyl)-2,5-dimethoxy-phenyl]-1-methyl-ethylamine hydrochloride] | 0.6 | 52 | –
15 | COc1cc(C[C@@H](C)N)c(OC)cc1CCCSC [Example 5, (R)-2-[2,5-Dimethoxy-4-(3-methylsulfanyl-propyl)-phenyl]-1-methyl-ethylamine hydrochloride] | 0.037 | 21 | –
16 | COCCc1cc(OC)c(C[C@@H](C)N)cc1OC.Cl [Example 3, (R)-2-[2,5-Dimethoxy-4-(2-methoxy-ethyl)-phenyl]-1-methyl-ethylamine hydrochloride] | 0.078 | 53 | % IOP change 1 hr [2]: −5.2%; % IOP change 3 hr [2]: −16.3%; % IOP change 6 hr [2]: −21.5%
17 | COc1cc(CC(C)N)c(OC)cc1CSC (stereo not shown) [Example 14, 2-(2,5-Dimethoxy-4-methylsulfanylmethyl-phenyl)-1-methyl-ethylamine; hydrochloride] | 0.068 | 52 | –
18 | COc1ccccc1Cc1cc(OC)c(C[C@@H](C)N)cc1OC [Example 19, (R)-2-[2,5-Dimethoxy-4-(2-methoxy-benzyl)-phenyl]-1-methyl-ethylamine hydrochloride] | 0.66 | 22 | –
19 | COc1cc(C[C@@H](C)N)c(OC)cc1Cc1ccccc1 [Example 17, (R)-2-(4-Benzyl-2,5-dimethoxy-phenyl)-1-methyl-ethylamine hydrochloride] | 0.31 | 43 | –
20 | COc1ccc(Cc2cc(OC)c(C[C@@H](C)N)cc2OC)cc1 [Example 18, (R)-2-[2,5-Dimethoxy-4-(4-methoxy-benzyl)-phenyl]-1-methyl-ethylamine hydrochloride] | 0.22 | 23 | –
21 | COc1cccc(Cc2cc(OC)c(C[C@@H](C)N)cc2OC)c1 [Example 20, (R)-2-[2,5-Dimethoxy-4-(3-methoxy-benzyl)-phenyl]-1-methyl-ethylamine hydrochloride] | 0.257 | 53 | –

Reference: patent US20070072920A1, “Phenylethylamine analogs and their use for treating glaucoma” (Alcon, Inc., priority 2005, published 2007)
